Data as given in US9801917B2, “Composition for improving blood sugar metabolism” (SUNSTAR INC., priority 2013, dated 2017).

How the values were obtained:
[1] = tested on: mouse skeletal myotube cell line (C2C12 cells); assay: Measurement of sugar uptake-promoting activity (6-NBDG uptake) using skeletal myotube cells; assay type: cell-based; conditions: for sugar uptake-promoting activity (in words): 0.01 mass %, compared with extract C
Procedure: Mouse skeletal myoblasts (C2C12 cells) were cultured in high-glucose DMEM (5790), and the cells were seeded and cultured in a black microtiter plate (produced by Falcon) at a concentration of 5000 cells/200 μL/well. The cells differentiated into myotubes were used for this experiment. Extract A and extract C obtained in the above Production Example 1 and adjusted to final concentrations of 0.02% and 0.05% were used as samples (Examples 2-1 to 2-4). A medium without any addition (Comparative Example 2-1) was used as a negative control. A medium containing insulin (10 nM) (Comparative Example 2-2) was used as a positive control.
On the day of the experiment, after the media were replaced with low-glucose DMEM (6047), starvation was performed. The media were then replaced with media containing the samples of Examples 2-1 to 2-4 and Comparative Examples 2-1 to 2-2 dissolved therein, and incubation was performed for 60 minutes. After the treatment, the media were removed and replaced with low-glucose DMEM containing 100 μM of a fluorescently labeled nonhydrolyzable sugar analog, 6-(N-(7-nitrobenz-2-oxa-1,3-diazol-4-yl)amino)-6-deoxyglucose (6-NBDG; produced by Invitrogen) dissolved therein. After the reaction was allowed to proceed for 30 minutes, the medium was removed. After washing with PBS, the fluorescence was measured at 444 nm/538 nm emission using a fluorescent plate reader.
The sugar uptake-promoting activity, in skeletal myotube cells, of each of extract C (Example 3-1) obtained in the above Production Example 1, and fractions A to C and insoluble matter (Example 3-5) obtained in the above Production Example 2 (Examples 3-2 to 3-4) was measured in the same manner as in Test Example 1-2. Further, as in Test Example 1-2, a medium with no addition was used as a negative control (Comparative Example 3-1), and a medium containing insulin (10 nM) (Comparative Example 3-2) was used as a positive control. The samples of Examples 3-1 to 3-5 were adjusted to a final concentration of 0.02 mass %.
The sugar uptake-promoting activity, in skeletal myotube cells, of extract C obtained in the above Production Example 1 (Example 4-1) and seven compounds known to be contained in persimmon leaves (Example 4-2 to 4-8), i.e., kaempferol-3-O-glucoside, quercetin-3-O-glucoside, quercetin-3-O-galactoside, (+)-catechin, epigallocatechin gallate, rutin, and gallic acid was measured in the same manner as in Test Example 1-2. Further, as in Test Example 1-2, a medium with no addition was used as a negative control (Comparative Example 4-1), and a medium with insulin (10 nM) was used as a positive control (Comparative Example 4-2). The samples obtained in Example 4-1 to 4-8 were adjusted to a final concentration of 0.01 mass %.
The sugar uptake-promoting effects of extract C obtained in the above Production Example 1 (Example 5-1), fraction B obtained in the above Production Example 2 (Example 5-2), and fractions F to L (Examples 5-3 to 5-9) obtained in the above Production Example 3 on skeletal myotube cells were measured in the same manner as in Test Example 2. A medium with no addition was used as a negative control (Comparative Example 5-1), and media with insulin (10 nM) (Comparative Example 5-2), with insulin (100 nM) (Comparative Example 5-3), and with AICAR (final concentration: 3 mM) (Comparative Example 5-4) were used as positive controls. The samples of Examples 5-1 to 5-9 were adjusted to a final concentration of 0.02 mass %. […]

AMP kinase = assay: Measurement of AMP kinase phosphorylation activity (Western blot pAMPK/tAMPK) in C2C12 cells; assay type: cell-based, mouse; conditions: Test Example 1-1; positive control, final concentration 2 mM; relative value, negative control = 1
Procedure: Persimmon leaf extracts A to E (powders) that had been dissolved in media to a final concentration of 0.02% were used as samples (Examples 1-1 to 1-5). A medium without any addition was used as a negative control (Comparative Example 1-1). A medium containing AICAR (final concentration: 2 mM) was used as a positive control (Comparative Example 1-2). Subsequently, a mouse skeletal myotube cell line (C2C12 cells) was seeded onto a 6-well cell culture plate and cultured in a DMEM medium containing 10% fetal bovine serum and a 1% antibacterial agent at 37° C., 5% carbon dioxide for 3 days.
When the cells became confluent, the medium was replaced with a DMEM medium containing 1% fetal bovine serum, and the cells were further cultured and fully differentiated. After the medium was again replaced with a fresh medium, the samples of Examples 1-1 to 1-5 and Comparative Examples 1-1 to 1-2 were added, and the cells were cultured at 37° C., 5% carbon dioxide. […]
The cell lysate was sonicated and then centrifuged to obtain a supernatant. […] The protein concentration of each supernatant was measured. […]
Western blotting was performed in the following manner. […] Chemiluminescence was detected using a CCD camera imager (produced by GE Healthcare). The degree of the activity was expressed as a relative value with the value of the negative control being defined as 1.

[2] = Test Example 3, final concentration 0.01 mass %, control = 1.00

Compound	Relative fluorescence intensity [1, 2]	sugar uptake-promoting activity (in words) ([1]; Test Example 3)	further results
Oc1cc(O)c2c(c1)O[C@H](c1ccc(O)c(O)c1)[C@@H](O)C2 [(+)-catechin]	1.09	–	–
NC(=O)c1ncn([C@@H]2O[C@H](CO)[C@@H](O)[C@H]2O)c1N [AICAR]	–	–	Relative fluorescence intensity ([1]; Test Example 4, positive control 3 mM, control = 1.00): 1.96; pAMPK/tAMPK ratio (AMP kinase): 5.60
O=C(O[C@@H]1Cc2c(O)cc(O)cc2O[C@@H]1c1cc(O)c(O)c(O)c1)c1cc(O)c(O)c(O)c1 [Epigallocatechin gallate, epigallocatechin gallate]	1.70	as high as Example 4-1	–
O=C(O)c1cc(O)c(O)c(O)c1 [Gallic acid, gallic acid]	1.69	as high as Example 4-1	–
O=c1c(O[C@@H]2O[C@H](CO)[C@@H](O)[C@H](O)[C@H]2O)c(-c2ccc(O)cc2)oc2cc(O)cc(O)c12 [Kaempferol-3-glucoside, kaempferol-3-O-glucoside]	0.91	–	–
O=c1c(O[C@@H]2O[C@H](CO)[C@H](O)[C@H](O)[C@H]2O)c(-c2ccc(O)c(O)c2)oc2cc(O)cc(O)c12 [Quercetin-3-galactoside, quercetin-3-O-galactoside]	0.70	–	–
O=c1c(O[C@@H]2O[C@H](CO)[C@@H](O)[C@H](O)[C@H]2O)c(-c2ccc(O)c(O)c2)oc2cc(O)cc(O)c12 [Quercetin-3-glucoside, quercetin-3-O-glucoside]	2.26	as high as Example 4-1	–
C[C@@H]1O[C@@H](OC[C@H]2O[C@@H](Oc3c(-c4ccc(O)c(O)c4)oc4cc(O)cc(O)c4c3=O)[C@H](O)[C@@H](O)[C@@H]2O)[C@H](O)[C@H](O)[C@H]1O [Rutin, rutin]	0.91	–	–
insulin	–	–	Relative fluorescence intensity ([1]; Test Example 1-2, positive control 10 nM, no addition = 1.00): 1.32; Relative fluorescence intensity ([1]; Test Example 2, positive control 10 nM, no addition = 1.00): 1.25; Relative fluorescence intensity ([1]; Test Example 3, positive control 10 nM, control = 1.00): 1.43; Relative fluorescence intensity ([1]; Test Example 4, positive control 10 nM, control = 1.00): 1.62; Relative fluorescence intensity ([1]; Test Example 4, positive control 100 nM, control = 1.00): 1.74
